{"source": "patent US20230339981A1", "about": "“KRAS G12D MODULATING COMPOUNDS” (priority 2022, published 2023)", "key": {"GDP-loaded KRAS G12D": {"biological_target": "GDP-loaded KRAS G12D (Homo sapiens (Human), UniProt P01116, G12D)", "sequence (P01116-2 other isoform, or with tags, fused parts or gaps G12D)": "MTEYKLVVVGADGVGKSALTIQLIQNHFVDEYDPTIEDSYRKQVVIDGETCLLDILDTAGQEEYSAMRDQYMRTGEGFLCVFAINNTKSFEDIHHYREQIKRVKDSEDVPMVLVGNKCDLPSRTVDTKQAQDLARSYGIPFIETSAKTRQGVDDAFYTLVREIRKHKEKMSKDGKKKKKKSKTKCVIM", "test": "KRAS G12D (GDP) biochemical assay (TR-FRET probe displacement)", "format": "binding", "settings": "2 hours", "description": "Example A. KRAS G12D (GDP) Biochemical Assay\nCompounds were tested for binding to GDP-loaded KRAS G12D in a 384-well assay format using a TR-FRET probe displacement assay in buffer consisting of 50 mM Hepes (pH 7.4), 150 mM NaCl, 5 mM MgCl2 and 0.005% Tween-20. […] Compounds were serially diluted (1:3) in DMSO. The LabCyte ECHO Acoustic dispenser system was used to pre-spot the assay plates (384-well Non-Binding Surface plates, Corning, Catalog #3824) with 50 nL of compound. The compounds were pre-incubated with 5 μL of 2× final enzyme concentration for 30 minutes before adding 5 μL of 2× final concentration of Eu-streptavidin and TR-FRET probe (10 μL final reaction volume). The plates were incubated at room temperature for 2 hours before measuring TR-FRET ratio on the Envision plate reader. IC50 values were defined as the compound concentration that causes a 50% decrease in TR-FRET ratio and were calculated using a sigmoidal dose-response model to generate curve fits."}, "GP2D (KRAS G12D) cells": {"system": "GP2D (KRAS G12D) cells", "test": "2D cell viability assay (CellTiter-Glo)", "format": "cell-based", "settings": "GP2d, 96 h, 4 days", "description": "Example B. 2D Cell Viability Assay\nCompounds were tested in a 384-well format for their ability to inhibit the viability of GP2D (KRAS G12D) cells in 2D assays. Compounds were serially diluted (1:3) in DMSO. The LabCyte ECHO Acoustic dispenser system was used to pre-spot assay plates with 200 nL of test molecule per well. 1000 cells/well (40 μL volume per well) in RPMI medium with 10% FBS, and Penicillin-Streptomycin-Glutamine were plated in pre-spotted 384-well plates (Greiner, Catalog #781076) on the BioTEK EL406 liquid dispenser with a 5 μL dispensing cassette (BioTek 7170011). The plates were incubated at 37° C., 5% CO2 for 4 days before addition of CellTiter-Glo (CTG) reagent and measurement of luminescence signal. EC50 values were defined as the compound concentration that causes a 50% decrease in luminescence signal and were calculated using a sigmoidal dose-response model to generate curve fits."}}}
{"smiles": "C#Cc1c(F)ccc2cccc(-c3nc4c5c(nc(OC[C@@]67CCCN6[C@H](COc6cnc(C(F)(F)F)cn6)CC7)nc5c3F)N3C[C@H]5CC[C@H](N5)[C@H]3CCC4)c12", "note": "[Example 197, (6aR,7S,10R)-2-(8-ethynyl-7-fluoronaphthalen-1-yl)-1-fluoro-13-(((3S,7aS)-3-(((5-(trifluoromethyl)pyrazin-2-yl)oxy)methyl)tetrahydro-1H-pyrrolizin-7a(5H)-yl)methoxy)-5,6,6a,7,8,9,10,11-octahydro-4H-3,11a,12,14,15-pentaaza-7,10-methanocyclohepta[4,5]cycloocta[1,2,3-de]naphthalene]", "values": [{"measurement": "IC50", "setting": "GDP-loaded KRAS G12D", "result": 0.04, "unit": "nM"}, {"measurement": "EC50", "setting": "GP2D (KRAS G12D) cells", "result": 2.4, "unit": "nM"}]}
{"smiles": "C#Cc1c(F)ccc2cc(O)cc(-c3nc4c5c(nc(OCC6(CN7CCC(F)CC7)CC6)nc5c3F)N3C[C@H]5CC[C@H](N5)[C@H]3CO4)c12", "note": "[Example 32, 5-ethynyl-6-fluoro-4-((5aS,6S,9R)-1-fluoro-12-((1-((4-fluoropiperidin-1-yl)methyl)cyclopropyl)methoxy)-5a,6,7,8,9,10-hexahydro-5H-4-oxa-3,10a,11,13,14-pentaaza-6,9-methanonaphtho[1,8-ab]heptalen-2-yl)naphthalen-2-ol]", "values": [{"measurement": "IC50", "setting": "GDP-loaded KRAS G12D", "result": 0.2, "unit": "nM"}, {"measurement": "EC50", "setting": "GP2D (KRAS G12D) cells", "result": 2, "unit": "nM"}]}
{"smiles": "Oc1cc(-c2nc3c4c(nc(OC[C@@]56CCCN5C[C@H](F)C6)nc4c2F)N2C[C@H]4CC[C@H](N4)[C@H]2CO3)c2c(F)cccc2c1", "note": "[Example 5, 5-fluoro-4-((5aS,6S,9R)-1-fluoro-12-(((2R,7aS)-2-fluorotetrahydro-1H-pyrrolizin-7a(5H)-yl)methoxy)-5a,6,7,8,9,10-hexahydro-5H-4-oxa-3,10a,11,13,14-pentaaza-6,9-methanonaphtho[1,8-ab]heptalen-2-yl)naphthalen-2-ol]", "values": [{"measurement": "IC50", "setting": "GDP-loaded KRAS G12D", "result": 3, "unit": "nM"}, {"measurement": "EC50", "setting": "GP2D (KRAS G12D) cells", "result": 250, "unit": "nM"}]}
{"smiles": "Oc1cc(-c2nc3c4c(nc(OC[C@@]56CCCN5C[C@H](F)C6)nc4c2F)N2CC4CCC(N4)[C@H]2CO3)c2ccccc2c1", "note": "(stereo in doubt) [Example 18, 4-((5aS,6S,9R)-1-fluoro-12-(((2R,7aS)-2-fluorotetrahydro-1H-pyrrolizin-7a(5H)-yl)methoxy)-5a,6,7,8,9,10-hexahydro-5H-4-oxa-3,10a,11,13,14-pentaaza-6,9-methanonaphtho[1,8-ab]heptalen-2-yl)naphthalen-2-ol]", "values": [{"measurement": "IC50", "setting": "GDP-loaded KRAS G12D", "result": "> 1000", "unit": "nM"}, {"measurement": "EC50", "setting": "GP2D (KRAS G12D) cells", "result": "> 10000", "unit": "nM"}]}
{"smiles": "C#Cc1c(F)ccc2cc(O)cc(-c3cc4c5c(nc(OC[C@@]67CCCN6C[C@H](F)C7)nc5c3F)N3C[C@H]5CC[C@H](N5)[C@H]3CO4)c12", "note": "[Example 57, 5-ethynyl-6-fluoro-4-((5aS,6S,9R)-1-fluoro-13-(((2R,7aS)-2-fluorotetrahydro-1H-pyrrolizin-7a(5H)-yl)methoxy)-5a,6,7,8,9,1O-hexahydro-5H-6,9-epiminoazepino[2′,1′:3,4][1,4]oxazepino[5,6,7-de]quinazolin-2-yl)naphthalen-2-ol]", "values": [{"measurement": "IC50", "setting": "GDP-loaded KRAS G12D", "result": 0.6, "unit": "nM"}, {"measurement": "EC50", "setting": "GP2D (KRAS G12D) cells", "result": 28, "unit": "nM"}]}
{"smiles": "Oc1cc(-c2nc3c4c(nc(OC[C@@]56CCCN5C[C@H](F)C6)nc4c2F)N2CC4CCC(N4)[C@@H]2CO3)c2ccccc2c1", "note": "(stereo in doubt) [Example 21, 4-((5aR,6S,9R)-1-fluoro-12-(((2R,7aS)-2-fluorotetrahydro-1H-pyrrolizin-7a(5H)-yl)methoxy)-5a,6,7,8,9,10-hexahydro-5H-4-oxa-3,10a,11,13,14-pentaaza-6,9-methanonaphtho[1,8-ab]heptalen-2-yl)naphthalen-2-ol]", "values": [{"measurement": "IC50", "setting": "GDP-loaded KRAS G12D", "result": 2100, "unit": "nM"}, {"measurement": "EC50", "setting": "GP2D (KRAS G12D) cells", "result": 3100, "unit": "nM"}]}
{"smiles": "C#Cc1c(F)ccc2cccc(-c3nc4c5c(nc(OC[C@@]67CCCN6C[C@@]6(CC6(F)F)C7)nc5c3F)N3C[C@H]5CC[C@H](N5)[C@@H]3[C@@H](C)C4)c12", "note": "[Example 85, (5S,5aS,6S,9R)-12-(((1S,7a'S)-2,2-difluorodihydro-1′H,3′H-spiro[cyclopropane-1,2′-pyrrolizin]-7a′(5′H)-yl)methoxy)-2-(8-ethynyl-7-fluoronaphthalen-1-yl)-1-fluoro-5-methyl-4,5,5a,6,7,8,9,10-octahydro-3,10a,11,13,14-pentaaza-6,9-methanonaphtho[1,8-ab]heptalene]", "values": [{"measurement": "IC50", "setting": "GDP-loaded KRAS G12D", "result": 6.8, "unit": "nM"}, {"measurement": "EC50", "setting": "GP2D (KRAS G12D) cells", "result": 58, "unit": "nM"}]}
{"smiles": "C#Cc1c(F)ccc2cc(O)cc(-c3nc4c5c(nc(OC[C@@]67CCCN6[C@H](COC(C(F)(F)F)(C(F)(F)F)C(F)(F)F)CC7)nc5c3F)N3C[C@H]5CC[C@H](N5)[C@H]3CO4)c12", "note": "[Example 55, 5-ethynyl-6-fluoro-4-((5aS,6S,9R)-1-fluoro-12-(((3S,7aS)-3-(((1,1,1,3,3,3-hexafluoro-2-(trifluoromethyl)propan-2-yl)oxy)methyl)tetrahydro-1H-pyrrolizin-7a(5H)-yl)methoxy)-5a,6,7,8,9,10-hexahydro-5H-4-oxa-3,10a,11,13,14-pentaaza-6,9-methanonaphtho[1,8-ab]heptalen-2-yl)naphthalen-2-ol]", "values": [{"measurement": "IC50", "setting": "GDP-loaded KRAS G12D", "result": 0.5, "unit": "nM"}, {"measurement": "EC50", "setting": "GP2D (KRAS G12D) cells", "result": 0.8, "unit": "nM"}]}
{"smiles": "C#Cc1c(F)ccc2cc(O)cc(-c3nc4c5c(nc(OCC6(CN7CCC[C@@H](F)C7)CC6)nc5c3F)N3C[C@H]5CC[C@H](N5)[C@H]3CC4)c12", "note": "[Example 67]", "values": [{"measurement": "IC50", "setting": "GDP-loaded KRAS G12D", "result": 0.08, "unit": "nM"}, {"measurement": "EC50", "setting": "GP2D (KRAS G12D) cells", "result": 1, "unit": "nM"}]}
{"smiles": "C#Cc1c(F)ccc2cccc(-c3nc4c5c(nc(OC[C@@]67CCCN6C[C@H](F)C7)nc5c3F)N3C[C@H]5CC[C@H](N5)[C@H]3C[C@H]4O)c12", "note": "[Example 186, (4R,5aR,6S,9R)-2-(8-ethynyl-7-fluoronaphthalen-1-yl)-1-fluoro-12-(((2R,7aS)-2-fluorotetrahydro-1H-pyrrolizin-7a(5H)-yl)methoxy)-4,5,5a,6,7,8,9,10-octahydro-3,10a,11,13,14-pentaaza-6,9-methanonaphtho[1,8-ab]heptalen-4-ol]", "values": [{"measurement": "IC50", "setting": "GDP-loaded KRAS G12D", "result": 0.2, "unit": "nM"}, {"measurement": "EC50", "setting": "GP2D (KRAS G12D) cells", "result": 13, "unit": "nM"}]}
{"smiles": "C#Cc1c(F)ccc2cccc(-c3nc4c5c(nc(OC[C@@]67CCCN6[C@H](COC(C6CC6)C(F)(F)F)CC7)nc5c3F)N3C[C@H]5CC[C@H](N5)[C@H]3CCC4)c12", "note": "(stereo partly drawn) [Example 117, (6aR,7S,10R)-13-(((3S,7aS)-3-((1-cyclopropyl-2,2,2-trifluoroethoxy)methyl)tetrahydro-1H-pyrrolizin-7a(5H)-yl)methoxy)-2-(8-ethynyl-7-fluoronaphthalen-1-yl)-1-fluoro-5,6,6a,7,8,9,10,11-octahydro-4H-3,11a,12,14,15-pentaaza-7,10-methanocyclohepta[4,5]cycloocta[1,2,3-de]naphthalene]", "values": [{"measurement": "IC50", "setting": "GDP-loaded KRAS G12D", "result": 0.1, "unit": "nM"}, {"measurement": "EC50", "setting": "GP2D (KRAS G12D) cells", "result": 8.5, "unit": "nM"}]}
{"smiles": "C#Cc1c(F)ccc2cccc(-c3nc4c5c(nc(OC[C@@]67CCCN6[C@H](COc6cnc(C(F)F)cn6)CC7)nc5c3F)N3C[C@H]5CC[C@H](N5)[C@H]3CCC4)c12", "note": "[Example 200, (6aR,7S,10R)-13-(((3S,7aS)-3-(((5-(difluoromethyl)pyrazin-2-yl)oxy)methyl)tetrahydro-1H-pyrrolizin-7a(5H)-yl)methoxy)-2-(8-ethynyl-7-fluoronaphthalen-1-yl)-1-fluoro-5,6,6a,7,8,9,10,11-octahydro-4H-3,11a,12,14,15-pentaaza-7,10-methanocyclohepta[4,5]cycloocta[1,2,3-de]naphthalene]", "values": [{"measurement": "IC50", "setting": "GDP-loaded KRAS G12D", "result": 0.05, "unit": "nM"}, {"measurement": "EC50", "setting": "GP2D (KRAS G12D) cells", "result": 2.9, "unit": "nM"}]}
{"smiles": "C#Cc1c(F)ccc2cccc(-c3nc4c5c(nc(OCC6(CN7CCC(C(F)(F)F)CC7)CC6)nc5c3F)N3C[C@H]5CC[C@H](N5)[C@@H]3[C@@H](C)C4)c12", "note": "[Example 146, (5S,5aS,6S,9R)-2-(8-ethynyl-7-fluoronaphthalen-1-yl)-1-fluoro-5-methyl-12-((1-((4-(trifluoromethyl)piperidin-1-yl)methyl)cyclopropyl)methoxy)-4,5,5a,6,7,8,9,10-octahydro-3,10a,11,13,14-pentaaza-6,9-methanonaphtho[1,8-ab]heptalene]", "values": [{"measurement": "IC50", "setting": "GDP-loaded KRAS G12D", "result": 15.6, "unit": "nM"}, {"measurement": "EC50", "setting": "GP2D (KRAS G12D) cells", "result": 100, "unit": "nM"}]}
{"smiles": "C#Cc1c(F)ccc2cc(O)cc(-c3nc4c5c(nc(OCC6(CN7CCC[C@@H](F)C7)CC6)nc5c3F)N3C[C@H]5CC[C@H](N5)[C@H]3CO4)c12", "note": "[Example 34, 5-ethynyl-6-fluoro-4-((5aS,6S,9R)-1-fluoro-12-((1-(((R)-3-fluoropiperidin-1-yl)methyl)cyclopropyl)methoxy)-5a,6,7,8,9,10-hexahydro-5H-4-oxa-3,10a,11,13,14-pentaaza-6,9-methanonaphtho[1,8-ab]heptalen-2-yl)naphthalen-2-ol]", "values": [{"measurement": "IC50", "setting": "GDP-loaded KRAS G12D", "result": 0.2, "unit": "nM"}, {"measurement": "EC50", "setting": "GP2D (KRAS G12D) cells", "result": 2, "unit": "nM"}]}
{"smiles": "C#Cc1c(F)ccc2cccc(-c3nc4c5c(nc(OC[C@@]67CCCN6[C@H](COc6cc(C(F)(F)F)cnn6)CC7)nc5c3F)N3C[C@H]5CC[C@H](N5)[C@H]3CCC4)c12", "note": "[Example 198, (6aR,7S,10R)-2-(8-ethynyl-7-fluoronaphthalen-1-yl)-1-fluoro-13-(((3S,7aS)-3-(((5-(trifluoromethyl)pyridazin-3-yl)oxy)methyl)tetrahydro-1H-pyrrolizin-7a(5H)-yl)methoxy)-5,6,6a,7,8,9,10,11-octahydro-4H-3,11a,12,14,15-pentaaza-7,10-methanocyclohepta[4,5]cycloocta[1,2,3-de]naphthalene]", "values": [{"measurement": "IC50", "setting": "GDP-loaded KRAS G12D", "result": 0.02, "unit": "nM"}, {"measurement": "EC50", "setting": "GP2D (KRAS G12D) cells", "result": 2.4, "unit": "nM"}]}
